IC50 data for eight compounds are collected here from US11655235B2, “Pyrrolidine and piperidine compounds” (YUHAN CORPORATION, priority 2019, dated 2023).

One may read the IC50 as the concentration that inhibits the measured activity by half.

The structures appear in SMILES notation.

What all share (type): biochemical
The target in one test is T1, Recombinant human FAP (Homo sapiens, UniProt Q12884).
T1 construct: purchased R&D systems
T1 sequence (Q12884 1-760): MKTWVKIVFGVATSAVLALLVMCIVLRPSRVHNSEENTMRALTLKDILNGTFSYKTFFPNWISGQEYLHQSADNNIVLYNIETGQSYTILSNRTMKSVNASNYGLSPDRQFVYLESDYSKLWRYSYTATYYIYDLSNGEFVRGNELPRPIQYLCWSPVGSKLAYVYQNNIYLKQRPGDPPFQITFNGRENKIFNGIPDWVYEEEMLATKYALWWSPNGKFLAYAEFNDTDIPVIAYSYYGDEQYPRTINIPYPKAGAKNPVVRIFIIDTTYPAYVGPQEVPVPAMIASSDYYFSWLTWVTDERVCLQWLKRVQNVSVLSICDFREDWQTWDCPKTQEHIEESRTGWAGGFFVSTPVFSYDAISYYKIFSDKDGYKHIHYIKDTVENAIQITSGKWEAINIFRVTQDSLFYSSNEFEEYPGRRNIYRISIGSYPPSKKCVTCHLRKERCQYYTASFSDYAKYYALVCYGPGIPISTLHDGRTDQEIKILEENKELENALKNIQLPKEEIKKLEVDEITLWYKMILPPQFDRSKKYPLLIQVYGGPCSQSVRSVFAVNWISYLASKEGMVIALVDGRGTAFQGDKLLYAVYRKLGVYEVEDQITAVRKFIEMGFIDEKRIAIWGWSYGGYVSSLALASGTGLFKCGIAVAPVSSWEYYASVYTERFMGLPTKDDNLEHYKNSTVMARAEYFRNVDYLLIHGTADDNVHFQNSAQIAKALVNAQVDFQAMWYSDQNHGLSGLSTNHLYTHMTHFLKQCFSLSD
Description: FAP FRET assay, FGF21-sequence FRET peptide substrate. Particulars: FRET peptide with human FGF21 sequence, 6 μM, 37° C. An outline of the steps: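 Recombinant human FAP, 10 ng per reaction, in 50 mM HEPES pH 7.2 with 150 mM NaCl, 0.1 mg/ml BSA, 1 mM EDTA; HyLite Fluor 488/QXL 520 FRET peptide of human FGF21 sequence at 6 μM final, ≤0.1% DMSO, 37° C. IC50 from 8-point curves by four-parameter logistic fit.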

The target of another test is T2, recombinant human DPP9 (Homo sapiens, UniProt Q86TI2).
T2 construct: purchased R&D Systems
Description: DPP9 inhibition, fluorogenic substrate H-Gly-Pro-AMC. To be noted: recombinant human DPP9. The gist of the method:
(§1)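 Enzyme per reaction: 50 ng DPP9, 20 ng DPP8, 10 ng each DPP7 and PREP. Compounds were serially diluted (8 points, up to 0.5% DMSO) and incubated at 25 °C.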

A further test concerns the target T3, recombinant human DPP7 (Homo sapiens, UniProt Q9UHL4).
T3 construct: purchased R&D Systems
Kind of test: DPP7 inhibition, fluorogenic substrate Lys-Pro-AMC. Particulars: recombinant human DPP7. The gist of the method:
as §1

A further test addresses T4, recombinant human PREP (Homo sapiens, UniProt P48147).
T4 construct: purchased R&D System
T4 sequence (P48147 1-710): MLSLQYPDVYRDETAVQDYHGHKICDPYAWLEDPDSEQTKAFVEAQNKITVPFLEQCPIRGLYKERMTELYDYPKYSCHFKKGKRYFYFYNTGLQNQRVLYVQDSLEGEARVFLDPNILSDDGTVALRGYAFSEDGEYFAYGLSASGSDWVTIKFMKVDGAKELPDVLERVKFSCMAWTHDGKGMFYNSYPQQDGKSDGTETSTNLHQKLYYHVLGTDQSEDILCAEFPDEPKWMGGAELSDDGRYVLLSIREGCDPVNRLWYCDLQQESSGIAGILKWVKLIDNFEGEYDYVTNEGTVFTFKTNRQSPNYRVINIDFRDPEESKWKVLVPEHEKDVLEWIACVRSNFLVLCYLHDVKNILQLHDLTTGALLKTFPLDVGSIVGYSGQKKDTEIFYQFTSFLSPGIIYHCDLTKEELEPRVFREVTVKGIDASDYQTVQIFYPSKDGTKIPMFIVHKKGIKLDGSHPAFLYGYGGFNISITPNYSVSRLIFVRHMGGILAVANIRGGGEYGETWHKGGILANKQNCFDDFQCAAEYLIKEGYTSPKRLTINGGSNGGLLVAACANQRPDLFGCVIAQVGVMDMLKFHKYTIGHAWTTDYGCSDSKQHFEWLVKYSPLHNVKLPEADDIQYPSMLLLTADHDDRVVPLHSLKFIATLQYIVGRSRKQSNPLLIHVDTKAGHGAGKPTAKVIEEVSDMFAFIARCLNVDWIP
Kind of test: PREP inhibition, fluorogenic substrate Z-Gly-Pro-AMC. To be noted: Inhibitory Activity (IC50, nM) PREP, recombinant human PREP. The gist of the method:
as §1

The target in the next test is DPP4 (Homo sapiens, UniProt P27487). Description: DPP4 inhibition, fluorogenic substrate H-Gly-Pro-AMC. The arrangement: purchased R&D Systems. To be noted: recombinant human DPP4.
Chain of DPP4 (P27487 whole entry): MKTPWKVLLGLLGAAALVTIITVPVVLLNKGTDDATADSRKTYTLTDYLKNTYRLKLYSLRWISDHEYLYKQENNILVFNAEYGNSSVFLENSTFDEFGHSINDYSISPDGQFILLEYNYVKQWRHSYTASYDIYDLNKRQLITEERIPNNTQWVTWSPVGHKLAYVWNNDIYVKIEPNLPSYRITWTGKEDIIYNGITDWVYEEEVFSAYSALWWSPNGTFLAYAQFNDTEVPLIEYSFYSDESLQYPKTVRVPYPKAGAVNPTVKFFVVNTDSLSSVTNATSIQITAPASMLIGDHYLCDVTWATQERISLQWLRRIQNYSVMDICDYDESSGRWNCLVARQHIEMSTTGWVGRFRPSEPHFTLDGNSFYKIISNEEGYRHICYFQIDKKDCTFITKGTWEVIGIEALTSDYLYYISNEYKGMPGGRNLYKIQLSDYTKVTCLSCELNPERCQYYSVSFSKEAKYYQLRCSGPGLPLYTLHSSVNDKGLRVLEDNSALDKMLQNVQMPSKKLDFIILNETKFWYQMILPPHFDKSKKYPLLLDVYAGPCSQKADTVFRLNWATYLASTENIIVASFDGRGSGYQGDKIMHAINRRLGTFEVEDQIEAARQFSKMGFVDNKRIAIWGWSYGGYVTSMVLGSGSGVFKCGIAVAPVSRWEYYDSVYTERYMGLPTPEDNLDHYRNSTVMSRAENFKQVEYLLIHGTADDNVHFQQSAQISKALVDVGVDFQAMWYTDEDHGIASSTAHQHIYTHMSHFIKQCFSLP

T2 sequence (Q86TI2 whole entry): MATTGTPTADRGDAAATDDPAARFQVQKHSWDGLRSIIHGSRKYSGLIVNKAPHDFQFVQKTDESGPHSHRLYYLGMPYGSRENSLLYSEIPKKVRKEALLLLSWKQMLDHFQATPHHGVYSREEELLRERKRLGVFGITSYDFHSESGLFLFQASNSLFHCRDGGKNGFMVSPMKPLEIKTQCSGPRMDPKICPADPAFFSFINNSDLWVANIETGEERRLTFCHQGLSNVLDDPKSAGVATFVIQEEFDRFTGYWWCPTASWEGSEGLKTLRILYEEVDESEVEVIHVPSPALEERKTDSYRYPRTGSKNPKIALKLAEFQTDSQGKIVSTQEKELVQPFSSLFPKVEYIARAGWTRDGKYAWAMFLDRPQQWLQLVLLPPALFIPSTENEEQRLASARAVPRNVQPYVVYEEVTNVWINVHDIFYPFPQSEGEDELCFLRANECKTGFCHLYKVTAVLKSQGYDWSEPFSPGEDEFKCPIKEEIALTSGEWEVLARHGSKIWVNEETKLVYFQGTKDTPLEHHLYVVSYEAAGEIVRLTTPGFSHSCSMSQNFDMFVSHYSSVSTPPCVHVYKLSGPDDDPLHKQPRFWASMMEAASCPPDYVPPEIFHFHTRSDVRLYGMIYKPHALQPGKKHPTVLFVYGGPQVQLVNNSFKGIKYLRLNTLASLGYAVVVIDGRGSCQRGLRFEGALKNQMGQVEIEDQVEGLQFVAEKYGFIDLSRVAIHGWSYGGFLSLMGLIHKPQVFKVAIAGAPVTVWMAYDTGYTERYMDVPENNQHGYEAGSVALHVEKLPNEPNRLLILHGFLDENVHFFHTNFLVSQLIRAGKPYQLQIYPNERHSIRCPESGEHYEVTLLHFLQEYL

Regarding `N#C[C@@H]1C[C@H](F)CN1C(=O)CN1CC[C@@H](Nc2cc(C(F)(F)F)c3ncccc3c2)C1` [Example 216, (2S,4S)-4-fluoro-1-[2-[(3R)-3-[[8-(trifluoromethyl)-6-quinolyl]amino]pyrrolidin-1-yl]acetyl]pyrrolidine-2-carbonitrile], the IC50 on Recombinant human FAP is 0.0017 µM; at recombinant human DPP9 it was 0.822 µM; on recombinant human DPP7 it was 0.399 µM; at recombinant human PREP, 2560 nM; at DPP4 it was 1.35 µM.
The corresponding values for `COc1ccc(N[C@@H]2CCN(CC(=O)N3C[C@@H](F)C[C@H]3C#N)C2)c2cccnc12` [Example 178, (2S,4S)-4-fluoro-1-[2-[(3R)-3-[(8-methoxy-5-quinolyl)amino]pyrrolidin-1-yl]acetyl]pyrrolidine-2-carbonitrile] are 0.0101 µM, 2.57 µM, 5.96 µM, 2350 nM and 1.36 µM.
As to `N#C[C@@H]1C[C@H](F)CN1C(=O)CN1CC[C@H](Nc2ccc(O)c3ncccc23)C1` [Example 276, (2S,4S)-4-fluoro-1-[2-[(3S)-3-[(8-hydroxy-5-quinolyl)amino]pyrrolidin-1-yl]acetyl]pyrrolidine-2-carbonitrile], the IC50 is 0.014 µM at Recombinant human FAP; 5.33 µM on recombinant human DPP9; 3.49 µM on recombinant human DPP7; 3030 nM on recombinant human PREP; 0.977 µM at DPP4.
For `N#C[C@@H]1CCCN1C(=O)CN1CC[C@H](Nc2ccc(C(=O)Nc3ccncc3)c3ncccc23)C1` [Example 291, N-(4-pyridyl)-5-[[(3S)-1-[2-oxo-2-[(2S)-2-cyanopyrrolidin-1-yl]ethyl]pyrrolidin-3-yl]amino]quinoline-8-carboxamide], in that order: 0.0044 µM, 2.84 µM, 0.173 µM, 2110 nM and 12.9 µM.
The corresponding values for `CC(=O)Nc1ccc(N[C@H]2CCN(CC(=O)N3C[C@@H](F)C[C@H]3C#N)C2)c2cccnc12` [Example 297, N-[5-[[(3S)-1-[2-oxo-2-[(2S,4S)-2-cyano-4-fluoro-pyrrolidin-1-yl]ethyl]pyrrolidin-3-yl]amino]-8-quinolyl]acetamide] are 0.0029 µM, 4.2 µM, 0.0135 µM, 4750 nM and 2.81 µM.
The corresponding values for `CCN(c1cnc2ccccc2c1)C1CCN(CC(=O)N2C[C@@H](F)C[C@H]2C#N)CC1` [Example 304, (2S,4S)-1-[2-[4-[ethyl(3-quinolyl)amino]-1-piperidyl]acetyl]-4-fluoro-pyrrolidine-2-carbonitrile] are 0.008 µM, 7.6 µM, 1.05 µM, 117 nM and 18.8 µM.
Take `N#C[C@@H]1C[C@H](F)CN1C(=O)CN1CC[C@@H](Nc2ccnc3c(Cl)cccc23)C1` [Example 189, (2S,4S)-4-fluoro-1-[2-[(3R)-3-[(8-chloro-4-quinolyl)amino]pyrrolidin-1-yl]acetyl]pyrrolidine-2-carbonitrile]: the IC50 at Recombinant human FAP turned out to be 0.01 µM; at recombinant human DPP9, 1.51 µM; on recombinant human DPP7 it was 2.58 µM; at recombinant human PREP, 1150 nM; at DPP4 it was 3.5 µM.
As to `N#C[C@@H]1C[C@H](F)CN1C(=O)CN1CC[C@H](Nc2ccc(C(=O)Nc3cccnc3)c3ncccc23)C1` [Example 295, N-(3-pyridyl)-5-[[(3S)-1-[2-oxo-2-[(2S,4S)-2-cyano-4-fluoro-pyrrolidin-1-yl]ethyl]pyrrolidin-3-yl]amino]quinoline-8-carboxamide], the IC50 at Recombinant human FAP was 0.0007 µM; on recombinant human DPP9, 0.0878 µM; on recombinant human DPP7, 0.0641 µM; at recombinant human PREP, 724 nM; on DPP4 it was 0.865 µM.
